The values below come from the RepoRT retention time repository (doi:10.1021/acs.analchem.2c02893).

The nature of the data set: RP, Thermo Scientific Acclaim RSLC 120 C18, 100 × 2.1 mm, 2.2 µm, 30 °C, 0.2 mL/min, estimated dead time 1.1 min; A: 90% water + 10% methanol + 0.01% formic acid + 5 mM ammonium formate, pH 3.61; B: methanol + 0.01% formic acid + 5 mM ammonium formate, pH 3.61; gradient (min/%B) 0/1 1/1 2/39 13/99.9 15/99.9 15.1/1 20.1/1. Particulars: stereoisomer not certain.
Consider `CC1(C)C(C=C(Cl)C(F)(F)F)C1C(=O)OC(C#N)c1cccc(Oc2ccccc2)c1` (stereo not given) [Cyhalothrin (lambda-)], for which the LC retention time was 13 min.

On to `Cc1cc(C)cc(C(=O)N(NC(=O)c2ccc3c(c2C)CCCO3)C(C)(C)C)c1` [Chromafenozide], for which the LC retention time was 9.93 min.

For the compound `CCCCn1cc(C(=O)c2ccc(C)c3ccccc23)c2ccccc21` [JWH-073-4-Methyl], the LC retention time was 12.4 min.

For `NC(=O)C(CCN1CCCCC1)(c1ccccc1)c1ccccc1` [Fenpipramide], the LC retention time was 5.19 min.

Turning to `COc1ncc(F)c2nc(S(=O)(=O)Nc3c(F)cccc3F)nn12` [Florasulam], the LC retention time was 5.75 min.

`CCCCCCCCSC(=O)Oc1cc(Cl)nnc1-c1ccccc1` [Pyridate]: the LC retention time is 13.8 min.

On to `CNC(C)Cc1cccc(F)c1` (stereo not given) [Amphetamine-3-F-Methyl (3-F-methamphetamine)], for which the LC retention time was 4.39 min.

For `CC1C2Cc3ccc(O)cc3C1(C)CCN2CCc1ccccc1` (stereo not given) [Phenazocine], the LC retention time is 6.08 min.

On to `CNC(CC(C)C)C1(c2ccc(Cl)cc2)CCC1` (stereo not given) [Sibutramine-Nor], for which the LC retention time is 8.68 min.

As to `CCCOc1nc2ccc(I)cc2c(=O)n1CCC` [Proquinazid], the LC retention time was 13.3 min.

As to `COC(=O)c1c(Cl)ccc(Cl)c1OC` [Dicamba-methyl], the LC retention time is 9.64 min.

Take `COc1ccc(CCN(C)CCCC(C#N)(c2cc(OC)c(OC)c(OC)c2)C(C)C)cc1OC` (stereo not given) [Gallopamil]: the LC retention time was 7.19 min.

Consider `CC1C(=O)OC2CC[N+]3([O-])CC=C(COC(=O)C(C)(O)C1(C)O)C23` (stereo not given) [Monocrotaline-N-oxide], for which the LC retention time is 3.19 min.

Consider `C=CCN1CCC23c4c5ccc(O)c4OC2C(O)C=CC3C1C5` (stereo not given) [Nalorphine], for which the LC retention time was 3.39 min.

Turning to `CNC(=O)ON=C(C)SC` [Methomyl], the LC retention time is 4.16 min.

In the case of `CCCC1OC2CC3C4CCC5=CC(=O)C=CC5(C)C4C(O)CC3(C)C2(C(=O)CO)O1` (stereo not given) [Budesonide], the LC retention time was 10.3 min.

As to `COc1nc(C)nc(NC(=O)NS(=O)(=O)c2ccccc2Cl)n1` [Chlorsulfuron], the LC retention time is 6.54 min.

As to `c1ccc2c(c1)Sc1ccccc1N2CC1CN2CCC1CC2` (stereo not given) [Mequitazine], the LC retention time is 8.29 min.

`CCC(NC)C(=O)c1ccccc1` (stereo not given) [Buphedrone]: the LC retention time was 4.26 min.

Turning to `CC(F)CCCn1cc(C(=O)C2C(C)(C)C2(C)C)c2ccccc21` (stereo not drawn) [XLR-11 Isomer], the LC retention time is 11.6 min.

For the compound `CN1C(=O)CCS(=O)(=O)C1c1ccc(Cl)cc1` (stereo not given) [Chlormezanone], the LC retention time is 5.94 min.

With `O=C(Oc1cccc2cccnc12)c1nn(CCCCCF)c2ccccc12` [NPB-22-5F], the LC retention time was 10.3 min.

For `CNC(=O)ON=C(C)C(C)S(C)(=O)=O` (stereo not given) [Butoxycarboxim], the LC retention time was 3.66 min.

With `CC(C)C(NC(=O)c1nn(CCCCCCl)c2ccccc12)C(N)=O` (stereo not given) [AB-PINACA 5Cl], the LC retention time was 9.99 min.

As for `COc1ccc(C2Sc3ccccc3N(CCN(C)C)C(=O)C2O)cc1` (stereo not given) [Diltiazem-Deacetyl], the LC retention time was 6.41 min.

With `CCN(CC)CCCC(C)Nc1ccnc2cc(Cl)ccc12` (stereo not given) [Chloroquine], the LC retention time was 4.16 min.

As for `NCCc1ccccc1` [Phenethylamine (2-)], the LC retention time was 3.57 min.

With `CCCCCCCCCCCCN=C(N)N` [Dodine (Ion1+)], the LC retention time was 11.2 min.

As for `Cc1cc(C(C)(C)C)cc(C)c1CC1=NCCN1` [Xylometazoline], the LC retention time is 7.75 min.

For `COC1(C)CC(c2ccccc2)c2c(c3ccccc3oc2=O)O1` (stereo not given) [Pyranocoumarin], the LC retention time was 11.1 min.

On to `COP(N)(=S)Oc1ccccc1C(=O)OC(C)C` (stereo not given) [Isocarbophos], for which the LC retention time was 8.32 min.

In the case of `COCCCNc1nc(NC(C)C)nc(SC)n1` [Methoprotryne], the LC retention time is 9.14 min.

Consider `CCCSc1ccc2nc(NC(=O)OC)[nH]c2c1` [Albendazole], for which the LC retention time is 9.19 min.

As for `COCCCOc1cc(CC(CC(N)C(O)CC(C(=O)NCC(C)(C)C(N)=O)C(C)C)C(C)C)ccc1OC` (stereo not given) [Aliskiren], the LC retention time is 8.87 min.

As to `CC(=O)OC1(C(C)=O)CCC2C3CC(C)C4=CC(=O)CCC4(C)C3CCC21C` (stereo not given) [Medroxyprogesteroneacetate], the LC retention time is 11 min.

As to `CCCCCCCCOC(=O)c1ccccc1C(=O)OCCCCCCCC` [Phthalate-Di-n-octyl], the LC retention time is 15.3 min.

For the compound `COP(=S)(Oc1cc(Cl)c(Br)cc1Cl)c1ccccc1` (stereo not given) [Leptophos], the LC retention time was 13.8 min.

For `CSc1nc(N=[N+]=[N-])nc(NC(C)C)n1` [Aziprotryne], the LC retention time is 9.71 min.

Turning to `CCCC(C(=O)c1ccccc1)N1CCCC1` (stereo not drawn) [PVP- Alpha], the LC retention time was 5.08 min.

With `Cc1nnc2n1-c1ccc(Br)cc1C(c1ccccn1)=NC2` [Pyrazolam], the LC retention time was 6.27 min.

`CC(N)C(=O)c1ccccc1` (stereo not given) [Cathinone]: the LC retention time is 3.59 min.

For `COCCOc1ccccc1S(=O)(=O)NC(=O)Nc1nc(OC)nc(OC)n1` [Cinosulfuron], the LC retention time is 6.36 min.

As to `C#CC1(O)CCC2C3CCC4=CC(=O)CCC4C3CCC21C` (stereo not given) [Norethisterone], the LC retention time was 9.15 min.

For the compound `Cc1c(C(=O)NN2CCCCC2)nn(-c2ccc(Cl)cc2Cl)c1-c1ccc(Cl)cc1` [Rimonabant], the LC retention time is 12.8 min.

Regarding `CCCCCn1cc(C(=O)c2ccc(F)c3ccccc23)c2ccccc21` [JWH-412], the LC retention time is 12.8 min.

Take `CC(NC(=O)C(N)CC(=O)O)C(=O)NC1C(C)(C)SC1(C)C` (stereo not given) [Alitame]: the LC retention time is 6.09 min.

For the compound `CC(C)(c1ccc(OCC(O)CO)cc1)c1ccc(OCC2CO2)cc1` (stereo not given) [Bisphenol<U+00A0>A (2,3-dihydroxypropyl) glycidyl ether], the LC retention time was 9.52 min.

As to `OCc1nnc2n1-c1ccc(Cl)cc1C(c1ccccc1Cl)=NC2` [Triazolam-1-Hydroxymethyl (alpha-Hydroxy-Triazolam)], the LC retention time is 7.65 min.

Consider `CCCC(=O)Nc1ccc(OCC(O)CNC(C)C)c(C(C)=O)c1` (stereo not given) [Acebutolol], for which the LC retention time was 4.78 min.

`COc1cc(C)c(C(=O)c2c(OC)ccc(Br)c2C)c(OC)c1OC` [Metrafenone]: the LC retention time is 11.4 min.

Regarding `CC(=O)Nc1ccc(S(=O)(=O)Nc2nccs2)cc1` [Sulfathiazole-N4-Acetyl], the LC retention time was 4.24 min.

Consider `O=c1c2cc(F)ccc2nc(-n2cncn2)n1-c1ccc(Cl)cc1Cl` [Fluquinconazole], for which the LC retention time was 10.1 min.

As to `CCCOc1ccc(S(=O)(=O)N2CCN(CCO)CC2)cc1-c1nc2c(CCC)cn(CC)c2c(=O)[nH]1` [Mirodenafil], the LC retention time is 9.49 min.

For the compound `CN(CC(O)CO)C(=O)c1c(I)c(NC(=O)C(CO)CO)c(I)c(C(=O)N(C)CC(O)CO)c1I` (stereo not given) [Iobitridol], the LC retention time is 2.74 min.

With `CNC(=C[N+](=O)[O-])NCCSCc1csc(CN(C)C)n1` [Nizatidine], the LC retention time was 2.96 min.

Take `CCCc1cc(OC)c(CCN)cc1OC` [2 C-P]: the LC retention time is 7.46 min.

Regarding `CC(=O)C1(O)CCC2C3CC(C)C4=CC(=O)C=CC4(C)C3(F)C(O)CC21C` (stereo not given) [Fluorometholone], the LC retention time is 8.91 min.

`CC1C(c2ccc(Cl)cc2)SC(=O)N1C(=O)NC1CCCCC1` (stereo not given) [Hexythiazox]: the LC retention time was 12.6 min.

With `c1ccc2c(CC3=NCCN3)cccc2c1` [Naphazoline], the LC retention time was 4.84 min.

`CN1CCN(CCCN2c3ccccc3Sc3ccc(Cl)cc32)CC1` [Prochlorperazine]: the LC retention time is 9.89 min.

Regarding `CC(C)Oc1cc(-n2nc(C(C)(C)C)oc2=O)c(Cl)cc1Cl` [Oxadiazon], the LC retention time was 12.3 min.

In the case of `O=C1N(CCN2CCCCC2)C(=O)C(c2ccccc2)(N2CCCCC2)C(=O)N1CCN1CCCCC1` [Barverin], the LC retention time is 7.64 min.

As for `CC(C)OP(=O)(OC(C)C)SCc1ccccc1` [Iprobenfos], the LC retention time was 10.6 min.

Turning to `CC1(C)C(C(=O)c2cn(CCCCCF)c3ccccc23)C1(C)C` [XLR-11], the LC retention time is 11.9 min.

Consider `CNC(C)Cc1ccc(F)cc1` (stereo not given) [Amphetamine-4-F-Methyl (4-F-methamphetamine)], for which the LC retention time was 4.43 min.

For `Cc1[nH]oc(=O)c1N=Nc1ccccc1Cl` [Drazoxolon], the LC retention time was 10.3 min.

As to `CCSCCSP(=S)(OC)OC` [Thiometon], the LC retention time is 10.2 min.

On to `CCCCc1nc(Cl)c(CO)n1Cc1ccc(-c2ccccc2-c2nn[nH]n2)cc1` [Losartan], for which the LC retention time was 8.19 min.

For the compound `CC12CCC(=O)C=C1C1CC1C1C2CCC2(C)C1C1CC1C21CCC(=O)O1` (stereo not given) [Drospirenone], the LC retention time was 9.56 min.

In the case of `COc1ccc2c(c1)N(CC(C)CN(C)C)c1ccccc1S2` (stereo not given) [Levomepromazine], the LC retention time was 8.14 min.

`O=C(O)CCCn1cc(C(=O)c2cccc3ccccc23)c2ccccc21` [JWH-073-M-N-Butanoic acid]: the LC retention time is 9.33 min.

For `COc1cc(OC)nc(NC(=O)NS(=O)(=O)c2c(-c3nnn(C)n3)cnn2C)n1` [Azimsulfuron], the LC retention time is 7.62 min.

As to `CCCCCn1cc(C(=O)CC(C)(C)C(C)(C)O)c2ccccc21` [HTMPIPO-4], the LC retention time was 11.6 min.

`CNC(C)Cc1ccc(O)cc1` (stereo not given) [Pholedrine (Amphetamine-P-Hydroxy-methyl)]: the LC retention time was 2.91 min.

On to `NC(=O)c1c(Cl)cccc1Cl` [Dichlorobenzamide], for which the LC retention time is 4.48 min.
